Consider 7 compounds from patent US20240165259A1, “BIOORTHOGONAL REACTION SUITABLE FOR CLICK/UNCLICK APPLICATIONS” (DANA-FARBER CANCER INSTITUTE, INC., priority 2021, published 2024).

For test [1], the system named is MDA-MB-231 HER2− breast cancer cells. Nature of the test: Cell viability assay (CellTiter-Glo), MDA-MB-231. Format: cell-based. As to conditions: Homo sapiens, MDA-MB-231, 96 h, read-out: IC50, cell viability, without diboron. The method, then: SK-BR-3 cells were treated with […]-100 nM trastuzumab-MMAE 61″ in the presence or absence of 50 μM B2pin2, cultured for 72 h, and assayed using the CellTiter-Glo® cell viability assay. The IC50 of the ADC was insensitive to the presence or absence of diboron and recapitulated the IC50 of MMAE alone.
This N-oxide-based drug delivery platform provides a convenient mechanism for loading drugs onto antibodies as well as an appealing alternative to existing methods for the fast and complete release of drug molecules from their carriers.
Cell culture: Cells were cultured in RPMI (SK-BR-3) or DMEM (MDA-MB-231) containing 10% FBS (Sigma), 100 units/mL penicillin, and 0.1 mg/mL streptomycin (Sigma) in a humidified chamber at 37° C. under an ambient atmosphere with 5% CO2. Cells were passaged and dissociated with 0.25% trypsin, 0.1% EDTA in HBSS (Corning). […]
Cell viability assay: SK-BR-3 or MDA-MB-231 cell were seeded at a density of 5,000-10,000 cells per well in media [100 μL, RPMI (SK-BR-3) or DMEM (MDA-MB-231) supplemented with 5% heat-inactivated human serum (Sigma), penicillin (100 units/mL), streptomycin (0.1 mg/mL)] in an opaque 96-well plate. […] The plates were incubated at room temperature for 10 min to stabilize the luminescence signal and analyzed by a microplate reader (Clariostar Plus, BMG Labtech) (FIG. 48 and FIG. 49).

Test [2] concerns SK-BR-3 HER2+ breast cancer cells. Briefly: Cell viability assay (CellTiter-Glo), SK-BR-3. Format: cell-based. Particulars: Homo sapiens, SK-BR-3, 72 h, read-out: IC50, cell viability, without diboron. (In general: Cellular ATP, detected with luciferase, serves as a proxy for viable cell number.)
Description: Cell viability assay: SK-BR-3 or MDA-MB-231 cell were seeded at a density of 5,000-10,000 cells per well in media [100 μL, RPMI (SK-BR-3) or DMEM (MDA-MB-231) supplemented with 5% heat-inactivated human serum (Sigma), penicillin (100 units/mL), streptomycin (0.1 mg/mL)] in an opaque 96-well plate. PBS (100 μL) was added to the edge wells. The cells were incubated at 37° C. under ambient atmosphere with 5% CO2. […] The plates were incubated at 37° C. with 5% CO2 for 72 h (SK-BR-3) or 96 h (MDA-MB-231). After the plates were equilibrated at room temperature, CellTiter-Glo™ 2.0 reagent (50 μL, Promega™) was added to each well and mixed gently. The plates were incubated at room temperature for 10 min to stabilize the luminescence signal and analyzed by a microplate reader (Clariostar Plus, BMG Labtech) (FIG. 48 and FIG. 49).
Test [3] is described as follows: Retro-Cope elimination of linear alkynes 1′, 4′, 6′ with N,N-diethylhydroxylamine (Scheme 1). Format: physicochemical. Particulars: with N,N-diethylhydroxylamine (2′). Here is the method:
The impact of inductively withdrawing halogen and chalcogen substituents at the propargylic and terminal positions of the alkyne were evaluated. Retro-Cope elimination reaction between propargyl ether 1′ and N,N-diethylhydroxylamine (2′) was completed in 18 hours whereas hydroamination of terminal alkyne 4′ was incomplete, even after 10 days. […] The regioselectivities induced by the propargyl and terminal alkyne substituents appeared to be reinforcing.

Test [4] can be described thus: Cleavage reaction progress monitoring by 1H NMR spectroscopy. Particulars: 4 mM enamine N-oxide, 10 mM B2(OH)4, 10% DMSO-d6/23% CD3OD/d-PBS, pH 7.4. Format: physicochemical. From the text:
Diboron reagents and enamine N-oxide structures in hand, the reaction kinetics were characterized and the substrate scope for the cleavage reaction was explored. A series of chromogenic probes 32″, 38″, 39″ featuring a representative series of nitrogen, oxygen, and sulfur-bearing leaving groups were obtained. Each probe was synthesized from cyclooct-2-ynol either by Mitsunobu reaction or carbamoylation with the corresponding p-nitro(thio)phenol or p-nitrophenyl isocyanate followed by hydroamination with N,N-diethylhydroxylamine. The formation of the intended products was verified by ^1H NMR spectroscopy with caffeine as an internal standard (FIG. 29A, FIG. 33, FIG. 34). […] Over the course of 24 h, iminium ion 35″ hydrolyzed to cyclooctenone 36″ and diethylamine 37″. The other substrates reacted analogously with the same quantitative formation of iminium ion 35″ at the initial time point (FIG. 29B). […]
The chromogenic probes that were prepared were intended for stopped flow kinetics experiments using UV-vis spectroscopy; however, the NMR studies precluded the use of one of these compounds for this purpose. […] Since a change in UV absorbance is contingent on p-nitroaniline formation, it could not be used or any analogous carbamate-based chromogenic or fluorogenic outputs as accurate proxies for product release. Instead, a fluorescence polarization assay was employed. […]

Test [5] relates to cell surface HaloTag-GFP expressed on HEK293T cells. Nature of the test: Live cell labeling experiment (confocal microscopy). Format: cell-based. As to conditions: 10 μM 21′, then 10 μM 22′ for 1 hour, fixed. Here is the method: Live cell labeling by hydroamination was explored. HEK293T cells were transiently transfected with a cell surface HaloTag-GFP construct, treated with 10 μM HaloTag linker-conjugated difluoropropargyl ether 21′, washed, and incubated with 10 μM TAMRA-conjugated hydroxylamine 22′ for 1 hour. The cells were then fixed and visualized by confocal microscopy.
Cell Culture: HEK-293T cells were cultured in Dulbecco's Modified Eagle Medium (DMEM, Corning®) containing 10% fetal bovine serum (FBS, Sigma), 100 units/mL penicillin, and 0.1 mg/mL streptomycin (Sigma) in a humidified chamber at 37° C. with 5% CO2. Cells were passaged and dissociated with 0.25% trypsin, 0.1% EDTA in HBSS (Corning®). Cells tested negative for […] by the MycoAlert PLUS Mycoplasma Detection Kit (Lonza) following the manufacturer's protocol.
Preparation for 12-Well Plate: Coverslips (15 mm circle, thickness 0.13-0.17 mm) were acid-washed according to the Cold Spring Harbor protocol (Fischer et al., Cold Spring Harb. Protoc. 2008:pdb.prot4988 (2008)). A coverslip was added to each well in a 12-well plate followed by an aqueous solution of poly-D-lysine (0.1 mg/mL, 30-70 kDa, 800 μL). The plate was gently shaken to distribute the solution evenly, incubated at room temperature for 1 hour, washed using 1 mL of autoclaved deionized water for each well, and dried overnight. […]

Test [6] is described as follows: Cross reactivity: hydroxylamine with trans-cyclooctene 19, aldehyde 20, cyclopropene 21, alkyne 22. Format: physicochemical. Here is the method:
The reaction mixtures were analyzed by ^1H NMR spectroscopy.

Test [7] in a line: Cross reactivity: hydroxylamine under Cu-catalyzed azide-alkyne cycloaddition (CuAAC) conditions. Format: physicochemical. Particulars: alkyne S17, THPTA, CuSO4, sodium ascorbate, PBS pH 7.4, 0-4 hours, HPLC. Here is the method:
A solution of N,N-diethylhydroxylamine (0.8 μL, 100 mM in PBS, pH 7.4) was added to this mixture to bring the total volume to 200 μL. The solution was immediately transferred to a clean HPLC vial to monitor the reaction progress and incubated at room temperature in the dark. The reaction was analyzed by HPLC (Pursuit 200 Å C18, 4.6×150 mm, 10 μm particles, 1 mL/min flow rate, eluent: isocratic 0% MeCN/H2O+0.1% TFA (1 minute), gradient 0→100% MeCN/H2O+0.1% TFA (14 minutes), isocratic 100% MeCN/H2O+0.1% TFA (1 minute)) at each time point (0, 1, 2, and 4 hours) and quantified using its absorbance at 280 nm.

Test [8] addresses T1, lysozyme-TAMRA conjugate 6″conj (Gallus gallus, UniProt P00698).
T1 construct: purchased
Briefly: Screening of diboron derivatives 27″-31″ for cleavage of conjugate 6″conj. Format: biochemical. Particulars: PBS, 1 h.
Description: The impact of boron ligands on the dissociation reaction was also explored. […] Lysozyme-TAMRA conjugate 6″conj was treated with 5 or 50 μM of each diboron reagent in PBS and analyzed by in-gel fluorescence after 1 h.
A solution of diborons 27″-31″ (0.34 μL, 125 μM or 1.25 mM in DMSO; 5 or 50 μM final concentration) was added to a solution of lysozyme-fluorophore conjugate 6″conj (8 μL, 0.50 μM in PBS, pH 7.4). The reaction mixtures were incubated at room temperature in the dark. After 60 min, each reaction mixture was quenched by adding trimethylamine N-oxide (0.93 uL, 100 mM in H2O; 10 mM final concentration) and diluted with 1.6×SDS sample buffer (14.32 μL). Each solution (10 μL) was loaded onto a 15-well 12% SDS-PAGE gel. The gel was run at room temperature and at 175 V for 50 min. In-gel fluorescence was imaged with a Typhoon™ FLA 9500 (GE) at 532 nm with a photomultiplier tube (PMT) setting of 500 V (FIG. 41).

T1 sequence (P00698 19-147): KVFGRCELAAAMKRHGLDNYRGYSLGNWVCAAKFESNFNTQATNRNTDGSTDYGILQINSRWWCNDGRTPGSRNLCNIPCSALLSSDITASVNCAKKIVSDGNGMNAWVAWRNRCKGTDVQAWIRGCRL

Consider `CC[C@H](C)[C@@H]([C@@H](CC(=O)N1CCCC1[C@H](OC)[C@@H](C)C(=O)N[C@H](C)[C@@H](O)c1ccccc1)OC)N(C)C(=O)[C@@H](NC(=O)[C@@H](NC)C(C)C)C(C)C` (stereo partly shown) [MMAE, monomethyl auristatin E], for which the IC50 – broadly, the concentration that gives 50% inhibition – in test [1] was 0.75 nM; in test [2], 0.154 nM.
In the case of `OCCCCCC#CCl` [6′, 7-chlorohept-6-yn-1-ol], the “time to completion of retro-Cope elimination” value in test [3] is around 24 h.
For `CC[N+]([O-])(CC)/C1=C/C(Sc2ccc([N+](=O)[O-])cc2)CCCCC1` (stereo not shown) [38″, (E)-N,N-Diethyl-3-((4-nitrophenyl)thio)cyclooct-1-en-1-amine oxide], in test [4], the “time to complete reduction / conversion of enamine N-oxide” value was at most 4 min.
Turning to `O=C(NCCOCCOCCCCCCCl)OCCOC(F)(F)C#CCl` [21′, 2-((3-chloro-1,1-difluoroprop-2-yn-1-yl)oxy)ethyl (2-(2-((6-chlorohexyl)oxy)ethoxy)ethyl)carbamate], the “live cell labeling (TAMRA signal)” value in test [5] is “localized at the cell surface and co-localized with the GFP signal of transfected cells”.
As to `CCN(O)CC` [compound 1, N,N-diethylhydroxylamine], the “reactivity with strained alkenes” value in test [6] (5 mM hydroxylamine with 5 mM cyclopropene 21 or trans-cyclooctene 19, d3-acetonitrile) is given as “proved unreactive”. The “cross-reactivity with 19, 20, 21 or 22” value in test [6] (CD3CN, 1 hour, room temperature, 1H NMR) is “No change in the spectra was observed”. For the same compound, the “reaction under CuAAC conditions” value in test [7] is reported as “No reaction was observed”.
Take `OB(O)B(O)O` [Tetrahydroxydiboron, tetrahydroxydiboron]: the “cleavage of 6″conj at 5 μM diboron reagent” value in test [8] is “reach completion by 1 h”.
With `CC[N+]([O-])(CC)/C1=C/C(Oc2ccc([N+](=O)[O-])cc2)CCCCC1` (stereo not shown) [32″, (E)-N,N-Diethyl-3-(4-nitrophenoxy)cyclooct-1-en-1-amine oxide], in test [4], the “time to complete reduction / conversion of enamine N-oxide” value was at most 4 min.
